Results reported in US12590071B2, “Hydrazone derivative in which terminal amine group is substituted with aryl group or heteroaryl group, and use thereof” (KOREA INSTITUTE OF SCIENCE AND TECHNOLOGY, priority 2018, dated 2026).

Tests used:
tau protein = molecular target: T1, tau protein (Homo sapiens, UniProt P10636); assay: Tau protein aggregation inhibition in tau-BiFC cell model; type: cell-based; conditions: tau-BiFC cells treated together with Forskolin, 48 hours
T1 construct: expressed in transfected cells
T1 sequence (P10636 2-441 isoform P10636-8 limits assumed): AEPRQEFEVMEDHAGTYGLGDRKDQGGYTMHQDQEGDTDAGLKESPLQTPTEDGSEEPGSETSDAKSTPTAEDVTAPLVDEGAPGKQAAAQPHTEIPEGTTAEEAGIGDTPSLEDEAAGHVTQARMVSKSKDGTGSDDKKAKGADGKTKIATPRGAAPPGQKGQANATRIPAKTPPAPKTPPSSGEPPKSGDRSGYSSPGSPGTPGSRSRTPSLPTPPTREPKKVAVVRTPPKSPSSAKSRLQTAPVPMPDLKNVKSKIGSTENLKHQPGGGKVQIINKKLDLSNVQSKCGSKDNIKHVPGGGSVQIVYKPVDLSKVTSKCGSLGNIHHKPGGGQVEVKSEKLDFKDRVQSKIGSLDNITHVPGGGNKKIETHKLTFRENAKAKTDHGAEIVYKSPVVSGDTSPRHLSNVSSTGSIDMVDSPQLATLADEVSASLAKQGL
In short: (§1)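 Tau-BiFC cells co-treated 48 h with Forskolin ([…]) and compound at 0.03–30 μM. BiFC fluorescence quantified by imaging, IC50 by nonlinear regression; cytotoxicity as Hoechst-stained nuclei count relative to Forskolin-only wells (100% survival).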

Tau-BiFC cells = assay: Cytotoxicity (cell survival rate) in tau-BiFC cells; conditions: group treated with Forskolin alone = 100%
In short: as §1

CYP1A2 = molecular target: T2, CYP1A2 (Homo sapiens, UniProt P05177); assay: Inhibition of CYP coenzyme activity in human liver microsomes; type: in vitro ADME; conditions: compound 10 PM (so in the source); human liver microsomes 0.25 mg/mL; substrate phenacetin; 15 minutes
T2 construct: human liver microsomes (0.25 mg/mL); from tissue; host or cells: human liver microsomes
T2 sequence (P05177 1-516): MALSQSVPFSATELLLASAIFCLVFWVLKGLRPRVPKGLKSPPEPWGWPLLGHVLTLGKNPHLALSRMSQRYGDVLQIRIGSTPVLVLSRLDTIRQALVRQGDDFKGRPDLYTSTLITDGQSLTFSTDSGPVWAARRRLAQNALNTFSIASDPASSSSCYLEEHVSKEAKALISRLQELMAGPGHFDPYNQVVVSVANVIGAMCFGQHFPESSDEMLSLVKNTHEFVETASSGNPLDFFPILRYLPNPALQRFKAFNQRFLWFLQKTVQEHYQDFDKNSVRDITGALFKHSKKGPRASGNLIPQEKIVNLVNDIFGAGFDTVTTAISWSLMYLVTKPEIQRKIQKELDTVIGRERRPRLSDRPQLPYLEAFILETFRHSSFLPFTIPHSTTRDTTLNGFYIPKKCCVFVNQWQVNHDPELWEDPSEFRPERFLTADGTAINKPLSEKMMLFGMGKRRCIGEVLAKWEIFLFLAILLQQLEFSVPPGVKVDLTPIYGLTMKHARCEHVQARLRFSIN
Procedure: (§2) 5 The inhibition effects of CYP coenzyme activity by the compounds prepared according to Examples 1 to 171 was confirmed. Specifically, human liver microsomes (0.25 mg/mL), a 0.1 M phosphate buffer solution (pH 7.4), substrate drug cocktails (phenacetin 50 μM, diclofenac 10 μM, S-mephenytoin 100 μM, dextromethorphan 5 μM, and midazolam 2.5 μM) of five kinds of drug metabolism enzymes, and the compounds with a concentration of 0 μM or 10 PM were added, respectively. Then the mixture was cultured in advance at 37° C. for 5 minutes, and then further cultured at 37° C. for 15 minutes together with the addition of an NADPH generation system solution. Thereafter, a reaction was terminated by adding an acetonitrile solution containing an internal standard material (terfenadine), centrifugal separation (14,000 rpm, 4° C.) was performed for 5 minutes, and then a supernatant was injected into an LC-MS/MS system. Metabolites of the substrate drugs were simultaneously analyzed to evaluate the drug metabolism inhibition ability.
(§3) Metabolites of each CYP coenzyme indicator drug generated through the reaction were analyzed using the Shimadzu Nexera XR system and TSQ vantage (Thermo). Kinetex C18 (2.1 mm×100 mm, 2.6 μm, particle size; Phenomenex, USA) was used in an HPLC column, and (A) distilled water containing 0.1% formic acid and (B) acetonitrile containing 0.1% formic acid were used as mobile phases, and the gradient program shown in Table 2 was applied.
(§4) The generated metabolites were quantified using an MRM (multiple reaction monitoring) quantification mode, and Xcalibur (version 1.6.1) was used for data analysis.

CYP2C19 = molecular target: T3, CYP2C19 (Homo sapiens, UniProt P33261); assay: as above; type: in vitro ADME; conditions: compound 10 PM (so in the source); human liver microsomes 0.25 mg/mL; substrate S-mephenytoin; 15 minutes
T3 construct: human liver microsomes (0.25 mg/mL); from tissue; host or cells: human liver microsomes
T3 sequence (P33261 whole entry): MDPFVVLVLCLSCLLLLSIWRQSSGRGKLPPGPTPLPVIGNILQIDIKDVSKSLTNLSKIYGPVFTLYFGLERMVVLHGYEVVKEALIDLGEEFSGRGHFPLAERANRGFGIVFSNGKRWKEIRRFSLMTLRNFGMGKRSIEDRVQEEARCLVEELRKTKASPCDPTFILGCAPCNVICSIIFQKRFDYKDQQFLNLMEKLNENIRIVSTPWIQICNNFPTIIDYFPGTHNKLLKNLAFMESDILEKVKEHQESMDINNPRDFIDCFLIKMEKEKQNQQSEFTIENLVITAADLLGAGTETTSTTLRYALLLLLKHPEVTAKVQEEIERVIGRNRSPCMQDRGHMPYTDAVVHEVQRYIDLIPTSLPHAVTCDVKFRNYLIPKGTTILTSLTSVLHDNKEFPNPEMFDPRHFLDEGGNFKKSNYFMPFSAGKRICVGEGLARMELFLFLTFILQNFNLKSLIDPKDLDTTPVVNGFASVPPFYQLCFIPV
Procedure: as §2, §3, §4

CYP2C9 = molecular target: T4, CYP2C9 (Homo sapiens, UniProt P11712); assay: as above; type: in vitro ADME; conditions: compound 10 PM (so in the source); human liver microsomes 0.25 mg/mL; substrate diclofenac; 15 minutes
T4 construct: human liver microsomes (0.25 mg/mL); from tissue; host or cells: human liver microsomes
T4 sequence (P11712 whole entry): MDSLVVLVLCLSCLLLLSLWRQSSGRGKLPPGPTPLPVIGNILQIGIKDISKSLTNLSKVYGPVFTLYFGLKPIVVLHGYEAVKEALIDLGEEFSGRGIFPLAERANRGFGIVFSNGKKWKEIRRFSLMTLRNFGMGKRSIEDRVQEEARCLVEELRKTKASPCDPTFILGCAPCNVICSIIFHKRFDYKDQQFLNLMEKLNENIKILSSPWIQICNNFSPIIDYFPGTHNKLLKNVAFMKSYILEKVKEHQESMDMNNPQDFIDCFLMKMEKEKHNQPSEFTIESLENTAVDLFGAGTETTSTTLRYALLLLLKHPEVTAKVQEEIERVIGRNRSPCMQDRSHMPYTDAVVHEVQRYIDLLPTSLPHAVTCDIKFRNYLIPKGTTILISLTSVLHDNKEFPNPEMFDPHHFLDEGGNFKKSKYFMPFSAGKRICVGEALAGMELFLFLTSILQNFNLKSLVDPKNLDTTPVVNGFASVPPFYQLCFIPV
Procedure: as §2, §3, §4

CYP2D6 = molecular target: T5, CYP2D6 (Homo sapiens, UniProt P10635); assay: as above; type: in vitro ADME; conditions: compound 10 PM (so in the source); human liver microsomes 0.25 mg/mL; substrate dextromethorphan; 15 minutes
T5 construct: human liver microsomes (0.25 mg/mL); from tissue; host or cells: human liver microsomes
T5 sequence (P10635 whole entry): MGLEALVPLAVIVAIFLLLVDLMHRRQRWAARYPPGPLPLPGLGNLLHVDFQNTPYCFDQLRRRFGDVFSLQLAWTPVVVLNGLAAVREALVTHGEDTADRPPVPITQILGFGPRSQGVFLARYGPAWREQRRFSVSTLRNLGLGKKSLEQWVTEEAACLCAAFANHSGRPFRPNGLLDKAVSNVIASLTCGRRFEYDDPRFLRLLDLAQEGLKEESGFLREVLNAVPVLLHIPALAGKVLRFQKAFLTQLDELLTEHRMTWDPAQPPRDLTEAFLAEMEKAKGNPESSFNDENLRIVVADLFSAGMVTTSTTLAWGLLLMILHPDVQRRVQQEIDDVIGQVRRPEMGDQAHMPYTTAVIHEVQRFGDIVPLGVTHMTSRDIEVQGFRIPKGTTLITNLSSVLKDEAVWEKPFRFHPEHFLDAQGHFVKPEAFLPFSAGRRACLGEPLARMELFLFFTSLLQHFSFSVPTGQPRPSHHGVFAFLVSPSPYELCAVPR
Procedure: as §2, §3, §4

CYP3A4 = molecular target: T6, CYP3A4 (Homo sapiens, UniProt P08684); assay: as above; type: in vitro ADME; set-up: scale not given here; conditions: compound 10 PM (so in the source); human liver microsomes 0.25 mg/mL; substrate midazolam; 15 minutes
T6 construct: human liver microsomes (0.25 mg/mL); from tissue; host or cells: human liver microsomes
T6 sequence (P08684 whole entry): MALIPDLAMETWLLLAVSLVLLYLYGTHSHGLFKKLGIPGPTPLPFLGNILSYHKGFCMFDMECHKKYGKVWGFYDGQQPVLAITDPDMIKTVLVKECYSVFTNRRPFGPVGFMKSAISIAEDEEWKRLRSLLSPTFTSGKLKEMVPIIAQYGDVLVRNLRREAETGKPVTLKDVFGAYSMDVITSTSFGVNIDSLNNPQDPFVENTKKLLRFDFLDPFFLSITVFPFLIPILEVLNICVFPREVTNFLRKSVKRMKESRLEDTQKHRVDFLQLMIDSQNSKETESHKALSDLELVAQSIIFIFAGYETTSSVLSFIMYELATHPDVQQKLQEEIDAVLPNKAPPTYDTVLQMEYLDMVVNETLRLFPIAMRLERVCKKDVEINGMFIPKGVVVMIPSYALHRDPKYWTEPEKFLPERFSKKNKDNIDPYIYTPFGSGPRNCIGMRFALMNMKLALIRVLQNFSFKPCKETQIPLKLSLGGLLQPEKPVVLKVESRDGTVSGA
Procedure: as §2, §3, §4

[1] = Liver microsomal stability (human); type: in vitro ADME; conditions: amount of substrate remaining; 1 μM, 0.25 mg/mL microsomes, 37° C., 30 minutes
Procedure: (§5) The liver microsomal stability of the compounds prepared according to Examples 1 to 171 was confirmed. Specifically, four kinds of liver microsomes (human, dog, rat, and mouse, each 0.25 mg/mL), a 0.1 M phosphate buffer solution (pH 7.4), and the compounds with a concentration of 1 μM were added, respectively. Then the mixture was cultured in advance at 37° C. for 5 minutes, and then further cultured at 37° C. for 30 minutes together with the addition of an NADPH generation system solution. Thereafter, a reaction was terminated by adding an acetonitrile solution containing an internal standard material (chloropropamide), centrifugal separation (14,000 rpm, 4° C.) was performed for 5 minutes, and then a supernatant was injected into an LC-MS/MS system. The substrate drugs were analyzed to evaluate the metabolic stability for 8 kinds of compounds.
(§6) The amount of substrate remaining through the reaction was analyzed using the Shimadzu Nexera XR system and TSQ vantage (Thermo). Kinetex XB-C18 (2.1 mm×100 mm, 2.6 μm, particle size; Phenomenex, USA) was used in an HPLC column, and (A) distilled water containing 0.1% formic acid and (B) acetonitrile containing 0.1% formic acid were used as mobile phases. Analyst software (version 1.6.3) and Xcalibur (version 1.6.1) were used for data analysis.

[2] = Liver microsomal stability (dog); type: in vitro ADME; conditions: amount of substrate remaining; 1 μM, 0.25 mg/mL microsomes, 37° C., 30 minutes
Procedure: as §5, §6

[3] = Liver microsomal stability (rat); type: in vitro ADME; conditions: amount of substrate remaining; 1 μM, 0.25 mg/mL microsomes, 37° C., 30 minutes
Procedure: as §5, §6

[4] = Liver microsomal stability (mouse); type: in vitro ADME; conditions: amount of substrate remaining; 1 μM, 0.25 mg/mL microsomes, 37° C., 30 minutes
Procedure: as §5, §6

| SMILES | IC50 (tau protein) [µM] | Cell survival rate (% @ 10 μM) (Tau-BiFC cells) [%] | inhibition effects of CYP coenzyme activity, CYP1A2 (CYP1A2) | inhibition effects of CYP coenzyme activity, CYP2C19 (CYP2C19) | inhibition effects of CYP coenzyme activity, CYP2C9 (CYP2C9) | inhibition effects of CYP coenzyme activity, CYP2D6 (CYP2D6) | inhibition effects of CYP coenzyme activity, CYP3A4 (CYP3A4) | liver microsomal stability, Human (%) [1] [%] | liver microsomal stability, Dog (%) [2] [%] | liver microsomal stability, Rat (%) [3] [%] | liver microsomal stability, Mouse (%) [4] [%] |
| --- | --- | --- | --- | --- | --- | --- | --- | --- | --- | --- | --- |
| Cn1cc2c(-c3ccc(NN=C(C#N)C#N)cc3)cccc2n1 [Compound 55, (4-(2-methyl-2H-indazol-4-yl)phenyl)carbonohydrazonoyl dicyanide] | 1 | 120.1 | 66.9 | 86 | 59.5 | >100 | 87.6 | 70 | 85.6 | 60.8 | 71.2 |
| N#CC(C#N)=NNc1ccc2scnc2c1 [Compound 61, benzo[d]thiazol-5-ylcarbonohydrazonoyl dicyanide] | 3.1 | 111.7 | 45.1 | 93.6 | 75.5 | >100 | 90.1 | 70.4 | 32.6 | 66.2 | 33.5 |
| Cn1ncc2ccc(NN=C(C#N)C#N)cc21 [Compound 63, (1-methyl-1H-indazol-6-yl)carbonohydrazonoyl dicyanide] | 0.74 | 111.4 | 43.3 | >100 | 84.2 | >100 | >100 | 87.4 | 82.6 | 72.1 | 9.5 |
| N#CC(C#N)=NNc1ccc2[nH]ncc2c1 [Compound 69, (1H-indazol-5-yl)carbonohydrazonoyl dicyanide] | 0.19 | 204.7 | 80.1 | 82.1 | 16.6 | >100 | 95.2 | 97.6 | 71.9 | 64.4 | 34.2 |
| N#CC(C#N)=NNc1cnc2[nH]ccc2c1 [Compound 72, (1H-pyrrolo[2,3-b]pyridin-5-yl)carbonohydrazonoyl dicyanide] | 0.035 | 89.5 | 85.8 | 97.8 | 88.7 | 98.9 | >100 | 86.3 | 84.8 | 72.8 | 58.6 |
| N#CC(C#N)=NNc1cnc2[nH]cc(Cl)c2c1 [Compound 83, (3-chloro-1H-pyrrolo[2,3-b]pyridin-5-yl)carbonohydrazonoyl dicyanide] | 0.3 | 98 | 47.7 | 96.4 | 51 | 91.1 | 86.4 | 64.1 | 31.9 | 62.2 | 11 |
| N#CC(C#N)=NNc1ccc2nc(NC(=O)c3ccccc3O)sc2c1 [Compound 87, (2-(2-hydroxybenzamido)benzo[d]thiazol-6-yl)carbonohydrazonoyl dicyanide] | 0.4 | 75.3 | 77 | 86.4 | 53.5 | 83.6 | 62.7 | 82.1 | 80.6 | 73.9 | 83.1 |
